Series [1] has as its system NMC cell lines. Nature of the series: SAHA treatment of five NMC cell lines. Format: cell-based. The note with it: pharmacologic doses.
The test system of series [2] is NMC (TC797) cells. Nature of the series: High-content 384-well assay of proliferation, histone acetylation and keratin expression adapted to NMC culture. The class given is cell-based. As to the method:
A cell based approach was developed for identifying potent and selective HDAC inhibitors. Nuclear acetylation correlates with inhibition of class I deacetylases such as HDAC1 and HDAC2. An automated epiflourescent assay was therefore developed which is measures histone hyperacetylation. Cells were seeded in 384-well plate format (500 cells/well) and treated with compound. They were then fixed and stained with: a) Hoechst (nuclei); b) primary anti-AcHistone polyclonal Ab; c) anti-Keratin monoclonal antibody; and d) compatible flurophore-conjugated secondary antibodies. After automated image acquisition, a custom analysis program was applied that identifies and masks cells based on nuclear intensity (Hoechst) and then derives quantitative fluorescent data from the FITC (AcHistone) image. Subsequent secondary masks were generated using cytosolic intensity.
We have performed studies of HDAC inhibitor effects on NMC cells in culture using an adaptation of the assay described above. […] In a first attempt at multiplexed detection and quantification of effects on cell proliferation, histone acetylation, and keratin protein expression, we have witnessed clear, dose-response activity of SAHA in the pharmacologically achievable range (Cmax approximately 2 μM).

The conditions of series [3]: pharmacologically achievable range; cited from earlier work.
For series [4], the system named is NMC cells. Nature of the series: TSA dose- and time-ranging studies in cultured NMC cells (immunofluorescence, bright-field microscopy, keratin immunohistochemistry). The class given is cell-based. As to the method:
Studies aimed at testing the hypothesis of HDAC inhibitor therapy in NMC have been conducted using trichostatin A (TSA), and vorinostat (SAHA, Zolinza®). Both of these compounds are regarded as non-selective for class I and II deacetylases and bind HDAC proteins by chelating the active site zinc atom with a hydroxamic acid feature. NMC cells cultured in vitro were treated with TSA in dose- and time-ranging studies. […] With further drug exposure, a differentiation phenotype was observed by bright-field microscopy and by immunohistochemistry for the epithelial differentiation-associated protein, keratin.

Molecules are shown by their SMILES.

As to `O=C(CCCCCCC(=O)Nc1ccccc1)NO` [SAHA, suberoylanilide hydroxamic acid], in series [1], the differentiation entry is on record as “resulted in differentiation” and the growth result was “arrested growth”. In addition, the histone acetylation result in series [2] (dose-ranging, qualitative in images) is “increased histone acetylation”. In series [2] (multiplexed detection), the cell proliferation entry is reported as “reduction in cell proliferation” and the keratin protein content entry is “induction of increased keratin protein content”. Besides, the Cmax (usually the highest concentration seen after dosing) in series [3] is around 2 µM.
Turning to `CC(/C=C/C(=O)NO)=C\[C@@H](C)C(=O)c1ccc(N(C)C)cc1` [TSA, trichostatin A], in series [4] (TSA 25 nM, within 24 hours), the “differentiation by brightfield microscopy” value is “rapidly differentiate”. Further, in series [4] (immunofluorescence microscopy), the “distribution of BRD-NUT and acetylation marks” value is “redistribution of both BRD-NUT and acetylation marks from nuclear speckles to a diffuse pattern”. In series [4] (immunofluorescence microscopy, dose- and time-ranging), the histone acetylation entry was “increase in histone acetylation with increasing dose and time of exposure”. In addition, the cytoplasmic keratin staining result in series [4] (immunohistochemistry) is listed as “increases in cytoplasmic keratin staining”.
